The values that follow come from patent publication US20130164747A1, “Predicting Treatment Response in Cancer Subjects” (University of South Florida, priority 2005, published 2013).

The subject of one test is H23 (NCI-H23) cells. Description: MTS assay (modified MTT), parent cell line. It is filed as cell-based. How it is done:
(§1) A modified MTT assay (MTS assay, Promega, Madison, Wis.) was used to assess the impact of RRM1 expression on therapeutic efficacy of gemcitabine and platinum-containing agents in vitro. This MTS assay utilized 3-(4,5-dimethylthiazol-2-yl)-5-(3-carboxymethoxyphenyl)-2-(4-sulfophenyl)-2H-tetrazolium as the reagent. The assay was performed by seeding 4,000 cells/well in 96 well flat-bottom plates. H23-Ct, H23-R1, H23siR1, H23siCt cells were continuously exposed to drug for 72 or 96 hr. After 3 hr of incubation at 37° C., the absorbance was measured at 490 nm in a microplate reader (Benchmark Plus, Bio-Rad, Hercules, Calif.). All experiments were repeated three times.
(§2) The MTS assay was performed by seeding 4,000 cells/well in 96 well flat-bottom plates. H23-Ct, H23-R1, H23 siR1, H23siCt cells were continuously exposed to drug for 72 or 96 h. The assay was performed with 3-(4,5-dimethylthiazol-2-yl)-5-(3-carboxymethoxyphenyl)-2-(4-sulfophenyl)-2H-tetrazolium reagent. After 3 h of incubation at 37° C., the absorbance was measured at 490 nm. All experiments were repeated three times.
(Formazan colour is commonly taken as a measure of viable cells.)

The subject of test [1] is H23-R1 cells. Briefly: MTS assay, RRM1-overexpressing cell line. It is filed as cell-based.
Text: (§3) Reduced expression of RRM1 correlates with increased sensitivity to gemcitabine. Stable, genetically modified cell lines with increased and decreased RRM1 expression and corresponding controls were generated (Gautam et al., Oncogene 22:2135-42, 2003). H23, originating from a lung adenocarcinoma, was used as the parent cell line (Carney et al., Cancer Res 45:2913-23, 1985). H23siR1 was generated by stable transfection of NCI-H23 with a pSUPER-siRRM1 construct. These cells express an siRNA that targets RRM1, thereby causing decreased expression of RRM1. To generate this construct, the pSUPER-GFP/neo vector (OligoEngine, Seattle, Wash.) was digested with BglII and HindIII and the annealed oligonucleotides (5′-GATCCCCgacgctagagcggtettat[…]ataagaccgctctagcgte[…]-3′(SEQ ID NO:1) and 5′-[…]gacgctagagcggtcttatTC TCTTGAAataagaccgctctagcgtcGGG-3′ (SEQ ID NO:2)) were ligated into the vector. The 19 nucleotide RRM1 target sequences are denoted by lower-case letters. The control H23siCt cell line was generated which expressed an siRNA targeting the sequence […] (SEQ ID NO:3). This sequence has no similarity to any known gene. H23-R1 is a stable RRM1 overexpressing cell line, and H23-Ct is its corresponding control. Both were generated by transfection with full-length RRM1 cDNA cloned into the expression plasmid pCMV-Tag2 (Stratagene, La Jolla, Calif.) as previously described (Gautam et al., Oncogene 22:2135-42, 2003). The level of RRM1 expression in these cell lines was assessed by real-time quantitative RT-PCR and Western blot analysis.
as §1, §2

A further test relates to H23-Ct cells. Description: MTS assay, control cell line of H23-R1. It is filed as cell-based.
Text: as §3, §1, §2

Test [2] deals with H23siR1 cells. Briefly: MTS assay, cell line with siRNA-reduced RRM1 expression. The class given is cell-based.
Text: as §3, §1, §2

Test [3] relates to H23siCt cells. Description: MTS assay, siRNA control cell line. It is filed as cell-based.
Text: as §3, §1, §2

In test [4] the test system is H23-R1 cells. Description: Drug-induced apoptosis, annexin V labeling by flow cytometry. The class given is cell-based. How it is done: (§4) To determine drug-induced in vitro apoptosis, 3×10^5 cells/well were seeded in six-well plates and allowed to attach overnight. Chemotherapeutic agents were added to the culture at the indicated concentrations. After 2, 4, and 6 hours of treatment annexin V labeling of the cells was performed as recommended by the manufacturer (BD Pharmingen, San Diego, Calif.). The percentage of labeled cells was determined by flow cytometry (FACScalibur, Becton Dickinson, Franklin Lakes, N.J.). […] The proportion of cells labeled after 6 h of treatment with 250 nM gemcitabine was 6.6-6.9% in control cell lines, 2.6% in H23-R1, and 15.2% in H23siR1. Cisplatin exposure for 6 h at 200 nM yielded 14.5-15.1% apoptotic cells in H23-Ct and H23siCt, 5.5% apoptotic cells in H23-R1, and 19.0% apoptotic cells in H23siR1.
(§5) Induction of apoptosis as a result of drug exposure was determined with 3×10^5 cells/well in six-well plates after 2, 4 and 6 hours of treatment. Cells were then labeled with annexin V, and labeling was determined by flow cytometry (FACScalibur, Becton Dickinson). After 4 h and 6 h of gemcitabine treatment 2.55% and 5.05% of the H23siCt cells were apoptotic while 5.09% and 15.7% of H23siR1 cells were apoptotic (FIG. 4). Likewise, the proportion of apoptotic cells after exposure to […] was higher in H23siR1 than in control cells. […] The increased apoptosis caused by both drugs in cell lines with reduced RRM1 expression was significant (p<0.05) as compared to control cells.

In test [5] the test system is H23siR1 cells. The test is described as above. It is filed as cell-based. As for the experimental part:
as §4, §5

The next test has as its system RRM1 expression. Description: Summary of observations: response by RRM1 expression level.
The test system of test [6] is control cell lines H23-Ct and H23siCt. Description: Drug-induced apoptosis, annexin V labeling by flow cytometry. The class given is cell-based. Conditions: 6 h. How it is done:
as §4
(In general: A flow cytometer gives signals particle by particle.)

Test [7] relates to H23siCt cells. The test is described as above. The class given is cell-based. How it is done:
as §5

The next test deals with ERCC1 expression. Description: Summary of observations: response by ERCC1 expression level.
[8] abbreviates: Homo sapiens, H23 (NCI-H23) parent cell line, continuous exposure 72 or 96 hr, read-out: IC50 +/− SD.
The mark [9] stands for this setting: H23-R1, RRM1 3-fold up, continuous exposure 72 or 96 hr, read-out: IC50 +/− SD.
The mark [10] stands for this setting: RRM1 no change, continuous exposure 72 or 96 hr, read-out: IC50 +/− SD.
The mark [11] stands for this setting: H23siR1, RRM1 5-fold down, continuous exposure 72 or 96 hr, read-out: IC50 +/− SD.
Where [12] appears, read: H23 (NCI-H23) parent cell line, continuous exposure 72 or 96 hr, read-out: IC50 +/− SD.
Where [13] appears, read: continuous exposure 72 or 96 h, read-out: IC50.

Read-outs that look alike come from different tables or passages of the source.

`CC(=O)O[C@@]12CO[C@@H]1C[C@H](O)[C@@]1(C)C(=O)[C@H](O)C3=C(C)[C@@H](OC(=O)[C@H](O)[C@@H](NC(=O)OC(C)(C)C)c4ccccc4)C[C@@](O)([C@@H](OC(=O)c4ccccc4)[C@H]21)C3(C)C` [Docetaxel, docetaxel]: the IC50 is 1000 nM with H23 (NCI-H23) cells (setting [8]); 9 nM in the test on H23-R1 cells [1] (setting [9]); 700 nM in the test with H23-Ct cells (setting [10]); 6 nM in the test on H23siR1 cells [2] (setting [11]); 2500 nM with H23siCt cells [3] (setting [10]). Also, the “Apoptosis compared with control cells” value with H23-R1 cells [4] (H23-R1 versus control cells) is “more apoptosis”. In addition, the “Proportion of apoptotic cells compared with control cells” value in the test with H23siR1 cells [5] (H23siR1 versus control cells) is “higher”. In addition, the “Response at RRM1 high expression” value with RRM1 expression was “Sensitive”. In addition, in the test on RRM1 expression, the “Response at RRM1 low expression” value is listed as “Sensitive”. Also, in the test on RRM1 expression, the “Response at RRM1 medium expression” value is on record as “Resistant”.
Take `Nc1ccn([C@@H]2O[C@H](CO)[C@@H](O)C2(F)F)c(=O)n1` [Gemcitabine, gemcitabine]: the IC50 with H23 (NCI-H23) cells (setting [8]) was determined as 500 nM; in the test with H23-R1 cells [1] (setting [9]), 6000 nM; with H23-Ct cells (setting [10]), 750 nM; in the test on H23siR1 cells [2] (setting [11]), 100 nM; with H23siCt cells [3] (setting [10]) it was 1020 nM. Besides, the “IC50 of H23-R1 higher than IC50 of H23-Ct (more resistant than control cell line)” value in the test with H23-R1 cells [1] (H23-R1 versus H23-Ct) was determined as 8 fold. Moreover, in the test on H23siR1 cells [2] (H23siR1 versus H23siCt), the “IC50 of H23siR1 lower than IC50 of H23siCt (more sensitive than control cell line)” value is listed as 10 fold. Moreover, the “Proportion of cells labeled with annexin V” value in the test with H23-R1 cells [4] (H23-R1, 250 nM gemcitabine, 6 h) is on record as 2.6%; with H23siR1 cells [5] (H23siR1, 250 nM gemcitabine, 6 h), 15.2%; in [6] (control cell lines, 250 nM gemcitabine), 6.6-6.9%. The Apoptotic cells in the test on H23siR1 cells [5] (H23siR1, 4 h of treatment (Example 4, FIG. 4)) was found to be 5.09%; in the test with H23siR1 cells [5] (H23siR1, 6 h of treatment (Example 4, FIG. 4)), 15.7%; in the test with H23siCt cells [7] (4 h of treatment (Example 4, FIG. 4)), 2.55%; in the test with H23siCt cells [7] (6 h of treatment (Example 4, FIG. 4)), 5.05%. For the same molecule, the “Response at RRM1 high expression” value in the test with RRM1 expression was “resistant”. In the test on RRM1 expression, the “Response at RRM1 low expression” value is recorded as “Sensitive”.
For `Nc1nc2[nH]cc(CCc3ccc(C(=O)N[C@@H](CCC(=O)O)C(=O)O)cc3)c2c(=O)[nH]1` [Pemetrexed, pemetrexed], in the test with RRM1 expression, the “Response at RRM1 high expression” value is on record as “resistant” and the “Response at RRM1 low expression” value is reported as “Sensitive”.
As for `N.N.O=C([O-])C1(C(=O)[O-])CCC1.[Pt+2]` [Carboplatin, carboplatin], the IC50 with H23 (NCI-H23) cells (setting [12]) amounted to 12000 nM; with H23-Ct cells (setting [10]), 15000 nM; in the test on H23siR1 cells [2] (setting [11]), 10000 nM; with H23siCt cells [3] (setting [10]), 13000 nM. Besides, in the test with RRM1 expression, the “Response at RRM1 high expression” value is given as “Minimal”. Also, the “Response at RRM1 low expression” value in the test with RRM1 expression is given as “Minimal”. The “Response at ERCC1 high expression” value in the test on ERCC1 expression was “resistant”. The “Response at ERCC1 low expression” value with ERCC1 expression was “sensitive”.
As for `N.N.[Cl][Pt][Cl]` [Cisplatin, cisplatin], the IC50 worked out at 1200 nM with H23 (NCI-H23) cells (setting [12]); 1500 nM with H23-R1 cells [1] (setting [9]); 1250 nM in the test with H23-Ct cells (setting [10]); 950 nM in the test on H23siR1 cells [2] (setting [11]); 1000 nM in the test on H23siCt cells [3] (setting [10]). In addition, the Apoptotic cells in the test with H23-R1 cells [4] (H23-R1, cisplatin 200 nM, 6 h) is given as 5.5%; with H23siR1 cells [5] (H23siR1, cisplatin 200 nM, 6 h) it was 19.0%; in test [6] (H23-Ct and H23siCt, cisplatin 200 nM), 14.5-15.1%. In the test with RRM1 expression, the “Response at RRM1 high expression” value is “Minimal”. Also, the “Response at RRM1 low expression” value in the test on RRM1 expression was “Minimal”. For the same molecule, the “Response at ERCC1 high expression” value in the test on ERCC1 expression is reported as “resistant”. Also, in the test on ERCC1 expression, the “Response at ERCC1 low expression” value is “sensitive”.
For the molecule `CCC1=C[C@@H]2CN(C1)Cc1c([nH]c3ccccc13)[C@@](C(=O)OC)(c1cc3c(cc1OC)N(C)[C@H]1[C@@](O)(C(=O)OC)[C@H](OC(C)=O)[C@]4(CC)C=CCN5CC[C@]31[C@@H]54)C2` [Vinorelbine, vinorelbine], the IC50 with H23 (NCI-H23) cells (Homo sapiens, NCI-H23, continuous exposure 72 or 96 h, read-out: IC50) worked out at 8000 nM; in the test on H23-R1 cells [1] (H23-R1, continuous exposure 72 or 96 h, read-out: IC50), 400 nM; in the test with H23-Ct cells (setting [13]) it was 20000 nM; with H23siR1 cells [2] (H23siR1, continuous exposure 72 or 96 h, read-out: IC50) it was 10 nM; with H23siCt cells [3] (setting [13]) it was 20000 nM. Moreover, in the test on RRM1 expression, the “Response at RRM1 high expression” value is on record as “Sensitive”. Also, the “Response at RRM1 low expression” value in the test with RRM1 expression is “Sensitive”. Besides, the “Response at RRM1 medium expression” value in the test on RRM1 expression was “Resistant”.
